Assay results reported in US7854940B2, “Broad spectrum preservation blends” (Arch Chemicals, Inc., priority 2004, dated 2010).

Assays:
Assay in all cases: Challenge test in broth
Assay type in all cases: cell-based
Conditions in all cases: Tryptic Soy Broth, blend added at 0.5% v/v
[1] = test system: Candida albicans (ATCC 10231)
Source text: (§1) A challenge protocol similar to the CTFA method was followed to assess efficacy against a broad spectrum of microorganisms. The four separate inocula were: Staphylococcus aureus (ATCC 6538), Pseudomonas aeruginosa (ATCC 9027) and Enterobacter gergoviae (cosmetic isolate), Candida albicans (ATCC 10231), and mixed molds Aspergillus niger (ATCC 6275) and a Penicillium sp. cosmetic isolate. Tubes containing 20 milliliters of broth were inoculated with approximately 1,500,000 bacteria per gram, 50,000 yeast cells per gram or 100,000 mold spores per gram. Individual challenges were prepared from overnight slants of bacteria and yeast cultures and from heavily sporulating mold cultures, 7 to 10 days old. All samples were plated quantitatively for viable organisms after 24 hours and 8 days.

[2] = test system: Pseudomonas aeruginosa (ATCC 9027) and Enterobacter gergoviae (cosmetic isolate)
Source text: as §1

[3] = test system: Staphylococcus aureus (ATCC 6538)
Source text: as §1

[4] = test system: mixed molds Aspergillus niger (ATCC 6275) and a Penicillium sp. cosmetic isolate
Source text: as §1

OCCOc1ccccc1 [2-Phenoxyethanol]
Colony Forming Units per Milliliter of Broth (CFU/ml) after 8 Days [1]: 4.0 × 10^3 CFU/ml | Colony Forming Units per Milliliter of Broth (CFU/ml) after 8 Days [2]: 9.1 × 10^7 CFU/ml | Colony Forming Units per Milliliter of Broth (CFU/ml) after 8 Days [3]: 3.2 × 10^8 CFU/ml | Colony Forming Units per Milliliter of Broth (CFU/ml) after 8 Days [4]: 5.8 × 10^2 CFU/ml
